Data: US11912686B2 (Gilead Sciences, Inc., priority 2020, dated 2024)

molecular target: human LPAR1 (Homo sapiens (Human), UniProt Q92633); assay: LPAR1 intracellular calcium mobilization assay (antagonist mode, FLIPR); type: cell-based; conditions: CHO-K1 EDG2 cells expressing human LPAR1, LPA 18:2 at EC80 (100 nM), test compound 0.5 nM to 10 μM
Sequence (Q92633 whole entry): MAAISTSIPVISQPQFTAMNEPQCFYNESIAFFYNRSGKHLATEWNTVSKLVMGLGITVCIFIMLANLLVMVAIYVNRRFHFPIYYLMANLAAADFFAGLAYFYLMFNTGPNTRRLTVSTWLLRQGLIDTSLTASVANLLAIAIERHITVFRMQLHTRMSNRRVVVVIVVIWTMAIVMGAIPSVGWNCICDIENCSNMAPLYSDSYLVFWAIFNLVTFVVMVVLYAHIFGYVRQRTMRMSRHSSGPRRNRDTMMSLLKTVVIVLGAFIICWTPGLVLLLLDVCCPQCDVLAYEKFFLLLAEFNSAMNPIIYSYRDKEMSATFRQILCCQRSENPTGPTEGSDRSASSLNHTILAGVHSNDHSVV

Going from C[C@@H](OC(=O)Nc1c(-c2ccc(NC(=O)C34CC(C#N)(C3)C4)cn2)nnn1C)c1cccnc1F [Compound 174, (R)-1-(2-fluoropyridin-3-yl)ethyl (4-(5-(3-cyanobicyclo[1.1.1]pentane-1-carboxamido)pyridin-2-yl)-1-methyl-1H-1,2,3-triazol-5-yl)carbamate] to C[C@@H](OC(=O)Nc1c(-c2ccc(NC(=O)C34CC(C(F)(F)F)(C3)C4)cn2)nnn1C)c1cccnc1F [Compound 170, (R)-1-(2-fluoropyridin-3-yl)ethyl (1-methyl-4-(5-(3-(trifluoromethyl)bicyclo[1.1.1]pentane-1-carboxamido)pyridin-2-yl)-1H-1,2,3-triazol-5-yl)carbamate], the EC50 falls from 107 nM to 31.8 nM (3.4-fold). The second is the more potent here.

First: Cc1nc(-c2nnn(C)c2NC(=O)O[C@H](C)c2cc(F)cnc2F)ccc1NC(=O)C1(C#N)CC1 [Compound 313, (R)-1-(2,5-difluoropyridin-3-yl)ethyl (4-(5-(1-cyanocyclopropane-1-carboxamido)-6-methylpyridin-2-yl)-1-methyl-1H-1,2,3-triazol-5-yl)carbamate]
Second: Cc1nc(-c2nnn(C)c2NC(=O)O[C@H](C)c2cc(F)cnc2F)ccc1NC(=O)c1cnc(C(F)(F)F)nc1 [Compound 314, (R)-1-(2,5-difluoropyridin-3-yl)ethyl (1-methyl-4-(6-methyl-5-(2-(trifluoromethyl)pyrimidine-5-carboxamido)pyridin-2-yl)-1H-1,2,3-triazol-5-yl)carbamate]
The EC50 of the first is 18-fold higher: 51.8 nM for the first, 2.9 nM for the second. The second is the more potent here.

Compared with CC(=O)Nc1ccc(-c2nnn(C)c2NC(=O)O[C@H](C)c2cccnc2Cl)cc1 [Compound 6, (R)-1-(2-chloropyridin-3-yl)ethyl (4-(4-acetamidophenyl)-1-methyl-1H-1,2,3-triazol-5-yl)carbamate], C[C@@H](OC(=O)Nc1c(-c2ccc(NC(=O)CC#N)cn2)nnn1C)c1cccnc1Cl [Compound 59, (R)-1-(2-chloropyridin-3-yl)ethyl (4-(5-(2-cyanoacetamido)pyridin-2-yl)-1-methyl-1H-1,2,3-triazol-5-yl)carbamate] is 7-fold lower in EC50: 1860 nM for the first, 264 nM for the second. The second is the more potent here.

First: C[C@@H](OC(=O)Nc1c(-c2ccc(NC(=O)C3(C#N)CCC3)cn2)nnn1C)c1cccnc1Cl [Compound 66, (R)-1-(2-chloropyridin-3-yl)ethyl (4-(5-(1-cyanocyclobutane-1-carboxamido)pyridin-2-yl)-1-methyl-1H-1,2,3-triazol-5-yl)carbamate]
Second: C[C@@H](OC(=O)Nc1c(-c2ccc(NC(=O)C3(C#N)CC(F)C3)cn2)nnn1C)c1cccnc1Cl (stereo partly drawn) [Compound 132, (R)-1-(2-chloropyridin-3-yl)ethyl (4-(5-(1-cyano-3-fluorocyclobutane-1-carboxamido)pyridin-2-yl)-1-methyl-1H-1,2,3-triazol-5-yl)carbamate]
The EC50 of the first is 3-fold lower: 66.6 nM for the first, 197 nM for the second.

First: C[C@@H](OC(=O)Nc1c(-c2ncc(NC(=O)C3(C#N)CC3)cn2)nnn1C)c1cccnc1Cl [Compound 2, [(1R)-1-(2-chloro-3-pyridyl)ethyl] N-[5-[5-[(1-cyanocyclopropanecarbonyl)amino]pyrimidin-2-yl]-3-methyl-triazol-4-yl]carbamate]
Second: C[C@@H](OC(=O)Nc1c(-c2ccc(NC(=O)C34CC(C3)C4)cn2)nnn1C)c1cccnc1Cl [Compound 68, (R)-1-(2-chloropyridin-3-yl)ethyl (4-(5-(bicyclo[1.1.1]pentane-1-carboxamido)pyridin-2-yl)-1-methyl-1H-1,2,3-triazol-5-yl)carbamate]
The EC50 of the first is 23-fold higher: 953 nM for the first, 40.8 nM for the second.

Compared with C[C@@H](OC(=O)Nc1c(-c2ccc(NC(=O)[C@@H]3C[C@H]3c3ccccc3)cn2)nnn1C)c1cccnc1Cl [Compound 197, (R)-1-(2-chloropyridin-3-yl)ethyl (1-methyl-4-(5-((1R,2R)-2-phenylcyclopropane-1-carboxamido)pyridin-2-yl)-1H-1,2,3-triazol-5-yl)carbamate], C[C@@H](OC(=O)Nc1c(-c2ccc(NC(=O)[C@H]3C[C@@H]3F)cn2)nnn1C)c1cccnc1Cl [Compound 52, (R)-1-(2-chloropyridin-3-yl)ethyl (4-(5-((1R,2S)-2-fluorocyclopropane-1-carboxamido)pyridin-2-yl)-1-methyl-1H-1,2,3-triazol-5-yl)carbamate] is 120-fold higher in EC50: 5.2 nM for the first, 622 nM for the second. The first is the more potent here.

Going from CO[C@]1(C#N)C[C@H](C(=O)Nc2cnc(-c3nnn(C)c3NC(=O)O[C@H](C)c3cc(F)cnc3F)nc2)C1 [Compound 335, (R)-1-(2,5-difluoropyridin-3-yl)ethyl (4-(5-((1s,3S)-3-cyano-3-methoxycyclobutane-1-carboxamido)pyrimidin-2-yl)-1-methyl-1H-1,2,3-triazol-5-yl)carbamate] to C[C@@H](OC(=O)Nc1c(-c2ccc(NC(=O)c3cnc(C4CC4)nc3)cn2)nnn1C)c1cc(F)cnc1F [Compound 283, (R)-1-(2,5-difluoropyridin-3-yl)ethyl (4-(5-(2-cyclopropylpyrimidine-5-carboxamido)pyridin-2-yl)-1-methyl-1H-1,2,3-triazol-5-yl)carbamate], the EC50 falls from 778 nM to 82.4 nM (9.4-fold). The second is the more potent here.

C[C@@H](OC(=O)Nc1c(-c2ccc(NC(=O)C3CC(C)(O)C3)cn2)nnn1C)c1cccnc1Cl (stereo partly drawn) [Compound 108, (R)-1-(2-chloropyridin-3-yl)ethyl (4-(5-(3-hydroxy-3-methylcyclobutane-1-carboxamido)pyridin-2-yl)-1-methyl-1H-1,2,3-triazol-5-yl)carbamate] and C[C@@H]1CCN(C(=O)Nc2ccc(-c3nnn(C)c3NC(=O)O[C@H](C)c3cccnc3Cl)nc2)C1 [Compound 190, (R)-1-(2-chloropyridin-3-yl)ethyl (1-methyl-4-(5-((R)-3-methylpyrrolidine-1-carboxamido)pyridin-2-yl)-1H-1,2,3-triazol-5-yl)carbamate] are within 1.5-fold of each other in EC50: 420 nM for the first, 359 nM for the second.

Compared with C[C@@H](OC(=O)Nc1c(-c2ccc(NC(=O)c3cc(F)nc(F)c3F)cn2)nnn1C)c1cc(F)cnc1F [Compound 264, (R)-1-(2,5-difluoropyridin-3-yl)ethyl (1-methyl-4-(5-(2,3,6-trifluoroisonicotinamido)pyridin-2-yl)-1H-1,2,3-triazol-5-yl)carbamate], C[C@@H](OC(=O)Nc1c(-c2ccc(NC(=O)c3cc(C#N)no3)cn2)nnn1C)c1cc(F)cnc1F [Compound 258, (R)-1-(2,5-difluoropyridin-3-yl)ethyl (4-(5-(3-cyanoisoxazole-5-carboxamido)pyridin-2-yl)-1-methyl-1H-1,2,3-triazol-5-yl)carbamate] is 11-fold lower in EC50: 203 nM for the first, 19.3 nM for the second. The second is the more potent here.

First: C[C@@H](OC(=O)Nc1c(-c2ccc(NC(=O)c3ccc(Cl)nc3)cn2)nnn1C)c1cccnc1F [Compound 292, (R)-1-(2-fluoropyridin-3-yl)ethyl (4-(5-(6-chloronicotinamido)pyridin-2-yl)-1-methyl-1H-1,2,3-triazol-5-yl)carbamate]
Second: C[C@@H](OC(=O)Nc1c(-c2ccc(NC(=O)N3CCCC3)cn2)nnn1C)c1cccnc1Cl [Compound 194, (R)-1-(2-chloropyridin-3-yl)ethyl (1-methyl-4-(5-(pyrrolidine-1-carboxamido)pyridin-2-yl)-1H-1,2,3-triazol-5-yl)carbamate]
The EC50 of the first is 5.8-fold lower: 143 nM for the first, 832 nM for the second. The first is the more potent here.

Compound C[C@@H](OC(=O)Nc1c(-c2ccc(NC(=O)[C@H]3[C@@H]4CN(CC(F)(F)F)C[C@@H]43)cn2)nnn1C)c1cccnc1Cl [Compound 308, (R)-1-(2-chloropyridin-3-yl)ethyl (1-methyl-4-(5-((1R,5S,6r)-3-(2,2,2-trifluoroethyl)-3-azabicyclo[3.1.0]hexane-6-carboxamido)pyridin-2-yl)-1H-1,2,3-triazol-5-yl)carbamate] has an EC50 of 337 nM.
